Test results as given in patent publication US10231958B2, “Methods and compositions for enhancing chemotherapy” (THE BOARD OF REGENTS OF THE UNIVERSITY OF TEXAS SYSTEM, priority 2015, dated 2019).
In brackets after ≈: the same amount, converted by molar mass.

Experiments:
MEFs = test: Gene expression microarray in MEFs; type: cell-based, mouse; settings: 24 h
Procedure: For microarray, 7.5×10^6 Kc167 Drosophila cells or 5×10^6 wild-type MEFs were seeded in T-75 cell culture flask in complete growth medium one day before treatments. On the following day, the medium was replenished with fresh growth medium or medium consisting of MMS at 40 μg/mL. Cells were harvested and pelleted at different times post treatment (0, 1, 8, 24 and 72 h), washed using ice cold phosphate buffered saline (PBS) and the RNA was extracted using the RNeasy kit protocol (Qiagen). RNA integrity was assessed by denaturing formaldehyde agarose gel electrophoresis or by microanalysis (Agilent Bioanalyzer, Santa Clara, Calif.). Microarray service was provided by Expression Analysis Inc., Durham, N.C. Affymetrix GeneChip Drosophila Genome 2.0 Array was used for the experiment performed using Kc167 cells, and Affymetrix GeneChip Mouse Genome 430A 2.0 Array was used for experiment performed using MEFs. The microarray service provided by Expression Analysis Inc., included group comparison between experimental control and MMS treatment and time course analysis based on permutation analysis of differential expression (PADE). For statistical comparison, each experiment was performed in quadruplicate.

[1] = system: Kc167 cells, MEFs, and MDA-MB231 breast cancer cells; test: Cell viability (CellTiter-Glo); type: cell-based, D. melanogaster, mouse, human; settings: Drosophila melanogaster, MDA-MB-231, 24 h
Procedure: The D. melanogaster embryonic cell line Kc167 was grown in Schneider medium (Invitrogen, Carlsbad, Calif.) supplemented with 10% heat-inactivated (56° C./30 min) fetal bovine serum (FBS), penicillin and streptomycin at 22° C. in a humidified incubator. Primary MEFs were obtained by harvesting 14.5-day C57BL/6J embryos as previously described (Ravi et al., 2009, PLoS Genet 5, e1000527). Briefly, fetal liver and head were removed and the remainder of the embryo was mechanically disaggregated in plating medium. A suspension of single-cells was plated in DMEM (plus 10% FBS, 100 U/mL penicillin and 100 μg/mL streptomycin). MEFs were grown for two passages before freezing aliquots. Aliquots were taken and expanded as needed for each experiment. MDA-MB231, SkBr3 and MCF-7 breast cancer cells lines were obtained from ATCC and grown in DMEM supplemented with 10% inactivated FBS plus antibiotics in a 37° C. humidified incubator at […] atmosphere. Cells were kept and treated in the exponential phase of growing (60-70% confluence). […] DMSO concentrations were kept to a maximum of 0.1% for all experiments. Cell viability was assessed using CellTiter-Glo Luminescent Viability assay (Promega) in 384 or 96-well plates white-border clear-bottom plated cells. For caspase-3/7 activity, Caspase-Glo 3/7 Assay kits were used (Promega). For caspase assays, the cells were seeded in 96-well plates and assayed directly after treatments. Caspase-3/7 inhibitor (Z-DEVD-fmk) was used to ensure assay specificity. LDH release into culture medium was quantified by Cytotox-96 Non-Radioactive assay kit in agreement with instructions (Promega).

[2] = system: Intracellular ROS production; test: Real-time ROS production (DCF assay); type: cell-based; settings: dose-independent, even at highly toxic MMS 80 μg/mL
Procedure: Intracellular ROS production was detected using DCFH-DA probe (Sigma) (Zanotto-Filho et al., 2010, Cancer Lett 288, 192-203). This reagent enters the cells and reacts predominantly with highly oxidizing species of ROS, such as hydroxyl radicals, hydroperoxides, and peroxynitrite, thus producing the fluorophore DCF. Briefly, cells were seeded in black-edge clear bottom 96-well plates. After reaching 70% confluence, medium was changed and cells were incubated with 20 μM DCFH-DA dissolved in medium containing 0.5% FBS. After 1 h pre-incubation to allow DCFH-DA uptake, treatments were added to its respective final concentrations and DCF fluorescence was monitored at 0.5, 1, 3, 8, 12, 16 and 24 h in a fluorescence reader (Ex/Em=485/532 nm). Hydrogen peroxide was used as a positive control and N-acetylcysteine (NAC), GSH-ethyl-ester (GSH-E) and Trolox were used as antioxidant standards. As a control, at the end of 24 h, cell viability was assessed and compared to wells in the absence of DCFH-DA.

MDA-MB231 cells = test: Gene expression profiling (RNAseq) in MDA-MB231 cells; type: cell-based, human
Procedure: Human cancer cell-lines treated with different pharmaceutical compounds were profiled by RNA-seq protocol using Illumina HiSeq 2000 system (Illumina, San Diego, Calif.). RNA was harvested 0, 8 and 24 hours post treatment using the RNeasy protocol (Qiagen) and the purity of prepared RNA was determined using Agilent 2100 BioAnalyzer. Total RNA samples about […] were used for sequencing library preparation according to Illumina TruSeq Total RNA Sample Preparation Guide (Illumina Cat. #: RS-122-2201). Each library was bar-coded and then pooled for cluster generation and sequencing run with 100 bp paired-end (PE) sequencing protocol. Short read sequences from RNAseq were first aligned to UCSC hg19 genome build using TopHat2 algorithm (PMID:19289445) and then quantified for gene expression by HTSeq [Anders, 2014]. Genes with lower read counts (determined by examining read counts in non-exonic regions) were removed. Differential expression more than 2 fold was selected as differentially expressed genes (DEGs).
For those genes for which expression was higher than noise/background, significant change in expression compared to unexposed (0 h) control, ±2-fold change, was used as cut-off for induction/repression. The lists of genes with altered expression were analyzed using Ingenuity Systems (IPA, Ingenuity Pathway Analyzer, Qiagen), DAVID (PMID:19131956; PMID: 19033363), and Rock Breast Cancer Functional Genomic Database (PMID:20563840) analytical software (p<0.05; FDR<10%) to ensure a good coverage of both metabolic and transduction pathways (due to differences in pathways libraries with the databases). Only pathways related to biological processes/signaling were considered relevant, and the terms were grouped by similarity of the biological for presentation; disease related pathways were discarded. Transcription factor enrichment analysis was performed using the TFactS software (PMID:20215436), which uses an algorithm to compare potential transcription factors involved in the regulation of genes with the input lists. […]

Compound	up-regulation of CAT expression (MEFs) [fold]	IC90 [1] [µg/mL]	increase in ROS [2] [fold]	effect on NRF2 and UPR genes (MDA-MB231 cells; 5 μM sorafenib)	effect on basal gene expression (VEGFA, HES1, MAML3, PLAT, ADAMST1) (MDA-MB231 cells; 5 μM sorafenib)	effect on MMS-induced inflammatory/invasive genes (MDA-MB231 cells; 5 μM sorafenib plus MMS)
COS(C)(=O)=O [MMS, methyl-methanesulfonate]	2.7	80 (≈ 726 µM)	1.5	–	–	–
CNC(=O)c1cc(Oc2ccc(NC(=O)Nc3ccc(Cl)c(C(F)(F)F)c3)cc2)ccn1 [sorafenib, 4-[4-[[4-chloro-3-(trifluoromethyl)phenyl]carbamoylamino]phenoxy]-N-methyl-pyridine-2-carboxamide]	–	–	–	lack of effect	decreased basal expression of several genes	blocked several of the aforementioned MMS-induced inflammatory/invasive genes
